Source: paper PMC12013614 (RSC Advances, 2025)
Marks after values point to notes of the source that are not given here.

Key:
Bcl-2 = assay: qRT-PCR gene expression, Bcl-2; type: cell-based; conditions: MDA-231 cells; 21.68 μM; control set to 1; mean ± SEM
MDA-MB-231 cells [1] = assay: Cell cycle analysis, PI flow cytometry; type: cell-based; conditions: 21.68 µM, 48 h
MDA-MB-231 cells [2] = assay: Apoptosis analysis, Annexin V-FITC/PI flow cytometry; type: cell-based
BAX = assay: qRT-PCR gene expression, BAX; type: cell-based; conditions: MDA-231 cells; 21.68 μM; control set to 1; mean ± SEM
BAX/Bcl-2 ratio = type: cell-based; conditions: MDA-231 cells; 21.68 μM; control set to 1
VEGFR-2 = VEGFR-2 (Homo sapiens, UniProt P35968); assay: In vitro VEGFR-2 kinase inhibition; type: biochemical
VEGFR-2, sequence (P35968 20-1356): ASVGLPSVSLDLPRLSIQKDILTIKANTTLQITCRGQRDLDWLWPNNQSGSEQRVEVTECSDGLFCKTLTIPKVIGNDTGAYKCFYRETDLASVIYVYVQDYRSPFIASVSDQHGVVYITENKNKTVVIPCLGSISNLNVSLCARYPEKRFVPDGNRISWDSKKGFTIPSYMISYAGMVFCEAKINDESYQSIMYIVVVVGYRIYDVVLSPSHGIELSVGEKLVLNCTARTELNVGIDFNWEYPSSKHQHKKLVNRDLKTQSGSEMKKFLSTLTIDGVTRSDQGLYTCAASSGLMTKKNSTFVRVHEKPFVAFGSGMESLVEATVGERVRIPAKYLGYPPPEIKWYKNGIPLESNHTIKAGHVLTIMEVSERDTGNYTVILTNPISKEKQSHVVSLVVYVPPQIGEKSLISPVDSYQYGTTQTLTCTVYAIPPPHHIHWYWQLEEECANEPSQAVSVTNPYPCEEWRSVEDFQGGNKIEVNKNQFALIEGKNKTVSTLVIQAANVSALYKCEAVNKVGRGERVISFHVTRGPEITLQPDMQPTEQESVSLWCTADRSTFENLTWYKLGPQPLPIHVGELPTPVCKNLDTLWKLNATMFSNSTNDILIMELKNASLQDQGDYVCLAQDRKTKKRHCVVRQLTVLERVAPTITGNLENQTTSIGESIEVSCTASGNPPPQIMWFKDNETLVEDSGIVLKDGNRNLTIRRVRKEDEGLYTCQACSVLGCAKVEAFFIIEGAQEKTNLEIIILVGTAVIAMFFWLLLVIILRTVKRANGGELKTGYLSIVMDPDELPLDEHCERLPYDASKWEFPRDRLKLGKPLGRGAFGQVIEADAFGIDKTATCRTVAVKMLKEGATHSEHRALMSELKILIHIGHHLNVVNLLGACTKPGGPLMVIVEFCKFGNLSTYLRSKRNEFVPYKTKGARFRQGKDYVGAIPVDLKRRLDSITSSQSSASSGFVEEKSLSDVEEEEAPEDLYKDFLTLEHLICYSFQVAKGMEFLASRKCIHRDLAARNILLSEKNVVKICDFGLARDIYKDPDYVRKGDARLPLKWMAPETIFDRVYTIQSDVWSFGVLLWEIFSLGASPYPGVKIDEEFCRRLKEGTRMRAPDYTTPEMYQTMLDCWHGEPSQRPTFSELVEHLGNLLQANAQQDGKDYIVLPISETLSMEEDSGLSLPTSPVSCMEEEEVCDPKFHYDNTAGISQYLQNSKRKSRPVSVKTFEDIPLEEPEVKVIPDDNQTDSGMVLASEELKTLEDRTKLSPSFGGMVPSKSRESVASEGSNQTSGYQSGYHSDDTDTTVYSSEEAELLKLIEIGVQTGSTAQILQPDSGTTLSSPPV

caspase-9 = assay: qRT-PCR gene expression, caspase-9; type: cell-based; conditions: MDA-231 cells; 21.68 μM; control set to 1; mean ± SEM
MDA-231 cells = assay: Cell migration and wound healing assay; type: cell-based; conditions: 11 μM (0.5 IC50), untreated control 58.95
caspase-8 = assay: qRT-PCR gene expression, caspase-8; type: cell-based; conditions: MDA-231 cells; 21.68 μM; control set to 1; mean ± SEM

## COc1cccc(NC(=O)Nc2ccc(Oc3nc4ccccc4n4cnnc34)cc2)c1 [11d, 1-(4-([1,2,4]Triazolo[4,3-a]quinoxalin-4-yloxy)phenyl)-3-(3-methoxyphenyl)urea]
Bcl-2
  Gene expression (fold change), Bcl-2: 0.34 ± 0.01 ^a fold change
MDA-MB-231 cells [1]; untreated 10.59
  Cell cycle distribution (%), % G2/M: 3.74 ^a %
MDA-MB-231 cells [1]; untreated 19.48
  Cell cycle distribution (%), % sub-G1: 15.75%
MDA-MB-231 cells [1]; untreated 24.95
  Cell cycle distribution (%), % S: 16.45 ^a %
MDA-MB-231 cells [1]; untreated 44.98
  Cell cycle distribution (%), % G1: 64.06 ^a %
MDA-MB-231 cells [2]; Homo sapiens, MDA-MB-231, 48 h, read-out: Viable (left bottom)
  viability at 21.68 µM: 20.2%
MDA-MB-231 cells [2]; MDA-MB-231, 21.68 µM, 48 h, untreated 0.32
  Necrosis (left top): 1.91 ^a %
MDA-MB-231 cells [2]; MDA-MB-231, 21.68 µM, 48 h, untreated 0.45
  Apoptosis, Late (right top): 31.49 ^a %
MDA-MB-231 cells [2]; MDA-MB-231, 21.68 µM, 48 h, untreated 3.84
  Apoptosis, Early (right bottom): 46.43 ^a %
BAX
  Gene expression (fold change), BAX: 5.48 ± 0.45 ^a fold change
BAX/Bcl-2 ratio
  Gene expression (fold change), BAX/Bcl-2 ratio: 16.11 ± 1.01 fold change
VEGFR-2
  IC50: 62.3 ± 2.77 nM
caspase-9
  Gene expression (fold change), Caspases-9: 5.58 ± 0.40 ^a fold change
MDA-231 cells
  Quantitative closure (%) for scratched assay after 48 h: 27.51%
caspase-8
  Gene expression (fold change), Caspases-8: 4.15 ± 0.48 ^a fold change
